Values after ≈ are worked out from the molar mass of the structure shown. Read-outs that look alike come from different tables or passages of the source.
System: HIV-1RF
Assay: CEM-T4 cell infection assay, reverse transcriptase readout, isolate RF
Format: cell-based
Details: Human immunodeficiency virus 1, CEM-T4, 168 h, 7 days, read-out: Virus Isolate (EC50 ng/mL) RF
Source text: RF represents the HIV-1 strain HIV-LRF and RFR represents a mixture of resistant strains obtained by selection of RF against the compound of Example 1. RFR comprises a mixture of viral strains having protease genotypes of G48V (14/40 clones); G48V, V82A (18/40 clones); G48V, L90S (2/40 clones); G48V, 154T, V82A (1/40 clones); G48M (1/40 clones); G48V, Q61H (1/40 clones); V13I, G48V (1/40 clones); G48V, F53L, V82A (1/40 clones); and G48V, V82A, C95Y (1/40 clones). RFR2 represents a mixture of resistant strains obtained by cloning RFR by three rounds of growth at limiting dilution. RFR2 comprises a mixture of viral strains having protease genotypes of G48V, V82A (13/15 clones); G17E, G48V, V82A (1/15 clones); and G48V, V82A, N37D, N88D (1/15 clones). RFRR represents a mixture of resistant strains obtained by selection of RF against the compounds of Examples 1 and 2 and then cloning by three rounds of growth at limiting dilution. RFRR comprises a mixture of viral strains having protease genotypes of G48V, 154T, L63P, V82A (7/9 clones); G48V, 154T, L63P, V82A, N88S (1/9 clones); and G48V, 154T, L63P, G73M, V82A (1/9 clones). SF162 represents the HIV-1 strain SF-162 and SF162R represents a mixture of resistant strains obtained by selection of SF162 against the compound of Example 1. SF162R comprises a mixture of viral strains having protease genotypes of M461, F53L, L63P, A71V, N88D (2/3 clones); and M46I, F53L, L63P, A71V, N88D, Q92R (1/3 clones). 89-959 represents the HIV-1 strain 89-959 and 89-959R represents a mixture of resistant strains obtained by selection of 89-959 against the compound of Example 2. 89-959R comprises a mixture of viral strains having protease genotypes of N88S (4/5 clones); and D25N, T26A, D30N, D37N, R41K, G73D, R87K, N88S (1/4 clones). NL4 represents the HIV-1 strain HIV-1NL4-3. NL4(G48V) represents a strain having a synthetically generated site-directed mutation in the protease from glycine to valine at amino acid position number 48. NL4(I84V) represents a strain having a synthetically generated site-directed mutation in the protease from isoleucine to valine at amino acid position number 84. NL4(R8Q,M46I) represents a strain having synthetically generated site-directed mutations in the protease from arginine to glutamine at amino acid position number 8 and methionine to isoleucine at amino acid position number 46. NL4(P22-538) represents a mixture of resistant strains obtained by selection of HIV-1NL4-3 against the compound of Example 10 after 22 passages comprising protease genotypes M46I, L63P, A71V, V82F, I84V (4/10); M46I, L63P, V82F, I84V (3/10); and M46I, A71V, V82F, I84V (3/10). NL4(P37-538) represents resistant strains obtained by selection of HIV-1NL4-3 against the compound of Example 10 after 37 passages comprising protease genotype M46I, L63P, A71V, 184A. NL4(538/524) represents resistant strains obtained by selection of NL4(P22-538) against the compound of Example 5 after 24 passages comprising protease genotype M46I, L63P, A71V, 184A. NL4(538/P7-AG) represents a mixture of resistant strains obtained by selection of NL4(P22-538) against the compound of Example 12 after 7 passages comprising protease genotypes M46I, L63P, A71V, 184A; and V321, V82I. NL4(538/P24-AG) represents resistant strains obtained by selection of NL4(P22-538) against the compound of Example 12 after 24 passages comprising protease genotype M46I, L63P, A71V, 184A. NLA(P19-003) represents resistant strains obtained by selection of HIV-1^NL4-3 against the compound of Example 9 after 19 passages comprising protease genotype R8K, M46I. NL4(P34-003) represents resistant strains obtained by selection of HIV-1^NL4-3 against the compound of Example 9 after 34 passages comprising protease genotype R8K, M46I, L63P, A71V, L90M.
The viral isolate resistance results summarized in Tables 4-6 were generated according to the following assay procedure or minor modifications thereof. Assays are performed in 96-well tissue culture plates. […]

| Compound | EC50 (Table 4, CEM-T4 cells) | EC50 (Table 6, CEM-T4 cells) | EC50 (Table 5, CEM-T4 cells) |
| --- | --- | --- | --- |
| CNCC(=O)N[C@H](C(=O)N[C@@H](Cc1ccccc1)[C@H](O)CN(CCC(C)C)C(=O)NC(C)(C)C)C(C)(C)C [Example 2, (2R,3S)-3-(N-methylaminoacetyl-L-tert-butylglycinyl)amino-1-(N-isoamyl-N-(tert-butylcarbamoyl))amino-4-phenyl-2-butanol] | 40 ng/mL (≈ 0.0749 µM) | 35 ng/mL (≈ 0.0656 µM) | – |
| CC(C)(C)NC(=O)[C@@H]1CC2CCCC[C@@H]2CN1C[C@@H](O)[C@H](Cc1ccccc1)NC(=O)[C@H](CC(N)=O)NC(=O)c1ccc2ccccc2n1 (stereo in doubt) [Example 6, N-tert-Butyl decahydro-2-[2(R)-hydroxy-4-phenyl-3(S)-[[N-(2-quinolylcarbonyl)-L-asparaginyl]amino]butyl]-(4aR,8aS)-isoquinoline-3(S)-carboxamide] | 12 ng/mL (≈ 0.0179 µM) | 6 ng/mL (≈ 0.00894 µM) | – |
| CC(C)CN(C[C@@H](O)[C@H](Cc1ccccc1)NC(=O)[C@H](CC(N)=O)NC(=O)c1ccc2ccccc2n1)S(=O)(=O)NC(C)(C)C [Example 8, N-[3-[N^2-[N^1-(1,1-dimethylethyl)aminosulfonyl]-N^2-(2-methylpropyl)amino]-2R-hydroxy-1S-(phenylmethyl)propyl]-2S-[(2-quinolinylcarbonyl)amino]butanediamide] | – | – | 2 ng/mL (≈ 0.00312 µM) |
| CC(C)CCN(C[C@@H](O)[C@H](Cc1ccccc1)NC(=O)[C@H](CC(N)=O)NC(=O)c1ccc2ccccc2n1)C(=O)NC(C)(C)C (relative stereo) [Example 7, [1S-[1R*(R*),2S*]]-N^1-[3-[[[(1,1-dimethylethyl)amino]carbonyl](3-methylbutyl)amino]-2-hydroxy-1-(phenylmethyl)propyl]-2-[(2-quinolinylcarbonyl)amino]-butanediamide] | – | – | 2 ng/mL (≈ 0.00323 µM) |
| CC(C)(C)NC(=O)[C@@H]1CN(Cc2cccnc2)CCN1C[C@@H](O)C[C@@H](Cc1ccccc1)C(=O)N[C@H]1c2ccccc2C[C@H]1O [Example 5, N-(2(R)-Hydroxy-1(S)-indanyl)-2(R)-phenylmethyl-4(S)-hydroxy-5-(1-(4-(3-pyridylmethyl)-2(S)-N′-(t-butylcarboxamido)-piperazinyl))-pentaneamide] | 44 ng/mL (≈ 0.0717 µM) | 6 ng/mL (≈ 0.00978 µM) | – |
| CC(C)CN(C[C@@H](O)[C@H](Cc1ccccc1)NC(=O)[C@H](CC(N)=O)NC(=O)c1ccc2ccccc2n1)C(=O)NC(C)(C)C (relative stereo) [Example 1, [1S-[1R*(R*),2S*]]-N^1-[3-[[[(1,1-dimethylethyl)amino]carbonyl])2-methylpropyl)amino]-2-hydroxy-1-(phenylmethyl)propyl]-2-[(2-quinolinylcarbonyl)amino]-butanediamide] | 30 ng/mL (≈ 0.0496 µM) | 19 ng/mL (≈ 0.0314 µM) | 24 ng/mL (≈ 0.0397 µM) |

Reference: patent US20030207813A1, “Retroviral protease inhibitor combinations” (priority 1995, published 2003)
